Values joined by “and” are separate entries in the source; they are usually repeats but may differ in a detail not shown here. Equal values may be shown once.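 Values below derive from 48-hour exposures of cells grown in 96-well plates, with endpoints linearly interpolated between the two concentrations bracketing the appropriate inhibition level. Abbreviation: GI50, concentration required for 50% inhibition of growth. Definition used: TGI = concentration required for complete inhibition of growth.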

This assay has as its system MDA-MB-468 breast. As to the kind of experiment: growth of human tumour cells (NCI), 48 h.
`COc1ccccc1/C=C/C(=O)c1c(O)cc2occc2c1OC`: the GI50 is 10300 nM and the TGI was 45.5 µM.

Turning to `CCN1C(=O)N(CC)C2C1NN=c1s/c(=C\c3ccccc3F)c(=O)n12` (stereo unspecified), the GI50 is 27 nM and the TGI is above 48.1 µM.

On to `O=C1CC2(CCOCC2)Oc2ncccc21`, for which the GI50 was 3230 nM and the TGI is 15.3 µM.

Regarding `COc1cc2c(F)nccc2cc1C(=O)N[C@@H](c1ccc(F)c(Cl)c1)[C@@H]1C[C@@H](O)CN1`, the GI50 was 52.7 nM and the TGI was found to be 2.33 µM.

On to `O=Nc1ccc(O)c2ccccc12`, for which the GI50 was 5850 nM and the TGI came to 27.4 µM.

With `O=C(c1ccc(OCCN2CCCCC2)cc1)c1c(-c2ccc(O)cc2)sc2cc(O)ccc12`, the GI50 is 3040 nM and 3130 nM; the TGI was 15.8 µM and 12.2 µM.

Turning to `C/C1=C/C(=O)O[C@@H]2C[C@@H](CC[C@H](C)/C=C\C=C\CC1)O[C@@](O)([C@@H]1CSC(=O)N1CO)C2`, the GI50 was 24.3 nM and the TGI is 0.0765 µM.

As for `COc1ccc(CCN2CCCN3C2=Nc2ccccc2S3(=O)=O)cc1`, the GI50 is 312 nM and the TGI was above 100 µM.

On to `COc1cccc(Cn2c(-c3nonc3N)nc3ccccc32)c1`, for which the GI50 is 312 nM.

On to `COc1ccccc1-c1cc(/C=C2\C(=O)Nc3ncc(Br)cc32)cc(Br)c1O`, for which the GI50 is 7400 nM and the TGI is above 25 µM.

With `CN[C@@H](C)C(=O)N[C@H]1CN(C(=O)CC(C)C)CC[C@H]2CC[C@@H](C(=O)NC(c3ccccc3)c3ccccc3)N2C1=O`, the GI50 is 39200 nM and the TGI is above 100 µM.

For the compound `Nc1ccccc1SC(CC(=O)c1ccccc1)c1ccc([N+](=O)[O-])cc1` (stereo unspecified), the GI50 is 14400 nM and the TGI was 31 µM.

Turning to `Cc1ccc2c(c1)C(C)Cc1c(ncnc1-n1cnc3cc(C)ccc31)N2C` (stereo unspecified), the GI50 is 41.4 nM and the TGI amounted to 19 µM.

`C=C(C)[C@@H]1CC[C@]2(C(N)=O)CC[C@]3(C)[C@H](CC[C@@H]4[C@@]5(C)CC[C@H](O)C(C)(C)[C@@H]5CC[C@]43C)[C@@H]12`: the GI50 was 3200 nM and the TGI is 11.9 µM.

`NC(=O)C1c2ccccc2C=Cc2ccccc21`: the GI50 was 78600 nM and the TGI is above 100 µM.

On to `Cc1ncc(C(=O)Nc2ccc(CN3CCN(C)CC3)c(C(F)(F)F)c2)cc1C#Cc1cnc(N)c2cnccc12`, for which the GI50 was 169 nM and the TGI came to 1.69 µM.

Consider `C[C@@H](N)C1CCC(C(=O)Nc2ccncc2)CC1` (stereo partly specified), for which the GI50 is above 100000 nM and the TGI is above 100 µM.

In the case of `O=C1Oc2ccccc2C(=O)/C1=C/N1C(=O)/C(=C/c2ccc3c(c2)OCO3)SC1=S`, the GI50 was 12100 nM and the TGI turned out to be 42 µM.

Turning to `O=C1/C=C/[C@@H](O)[C@@H]2C[C@@H](O)C[C@H]2/C=C/CCC[C@H](CCc2ccc(C(F)(F)F)cc2)O1`, the GI50 is 28.1 nM and the TGI came to 0.0829 µM.

For `O=C1OC2C(O)COC2(O)C1(O)C(C[N+](=O)[O-])c1ccc(Cl)cc1` (stereo unspecified), the GI50 is 16900 nM and the TGI stood at 44 µM.

As to `O=C(CCCCCCCn1cc(-c2cccnc2)nn1)Nc1ccccc1-c1ccccc1`, the GI50 is 4740 nM and the TGI is above 51.6 µM.

As for `CCC(CC)n1c(=O)c(SC2=NC3C(NN2)N(CC)C(=O)N3CC)c(C(=O)O)c2ccccc21` (stereo unspecified), the GI50 was 920 nM and the TGI came to 27.8 µM.

On to `COc1ccc(-c2nsc3c2NC(=O)CC3c2ccc(F)cc2)cc1` (stereo unspecified), for which the GI50 is 2180 nM and the TGI is above 30 µM.

For the compound `N#Cc1nc(-c2ccccc2)oc1S(=O)(=O)N1CCCCC1`, the GI50 is 10200 nM and the TGI worked out at 28.5 µM.

With `CC(C)CC1C(=O)N2CCC[C@H]2C2(O)O[C@](NC(=O)C3C=C4c5cccc6[nH]c(Br)c(c56)C[C@H]4N(C)C3)(C(C)C)C(=O)N12` (stereo partly specified), the GI50 was 3090 nM and the TGI was 39.3 µM.

Take `O=C(N/N=C/c1ccccc1O)C(O)(c1ccccc1)c1ccccc1`: the GI50 was 4620 nM and the TGI is above 100 µM.

Take `Cc1cc(C(=O)Nc2nc3cccc(Cl)c3n2[C@@H]2CCCCN(C(=O)/C=C/CN(C)C)C2)ccn1`: the GI50 was 102 nM and the TGI turned out to be 1.27 µM.

`CCCCCCCCCCCCNC(=O)[C@H]1CSC(c2cc3ccccc3s2)N1` (stereo partly specified): the GI50 is 1090 nM and the TGI worked out at 4.11 µM.

For `O=C1/C(=C\c2ccc(F)cc2)CN(C(=O)c2ccc([N+](=O)[O-])cc2)C/C1=C\c1ccc(F)cc1`, the GI50 is 1380 nM and the TGI was 3.68 µM.

Turning to `COc1cc(-c2nc(NC(C)=O)sc2-c2ccnc(NCCNS(=O)(=O)c3ccccc3)n2)ccc1Cl`, the GI50 is 2560 nM and the TGI turned out to be 9.61 µM.

For `CNC(=O)c1c(NC(=O)c2ccc(C(F)(F)F)cc2)sc2c1CCC(=O)C2`, the GI50 is 924 nM and the TGI is 3.8 µM.

Take `COC(=O)[C@H]1C(=O)[C@@]2(C)[C@H]([C@H](OC(=O)c3ccccc3)[C@]3(O)C[C@H](OC(=O)[C@H](O)[C@@H](NC(=O)c4ccc(F)cc4)c4ccccc4)C(C)=C1C3(C)C)[C@]1(OC(C)=O)CO[C@@H]1C[C@@H]2O`: the GI50 is 8.74 nM and the TGI stood at 6.46 µM.

Take `COC(=O)[C@H]1[C@@H](O)[C@@]2(O)c3c(OC)cc(O[C@@H]4O[C@@H]([C@H](O)CO)CO[C@H]4OC)cc3O[C@@]2(c2ccc(OC)cc2)[C@@H]1c1ccccc1`: the GI50 was 2.93 nM and the TGI turned out to be 0.0112 µM.

With `Cn1cc(-c2csc(-c3cn(C)c4ccc(Br)cc34)n2)c2cnccc21`, the GI50 was 1790 nM and the TGI is 3.46 µM.

Take `NC(=NCCCC1(c2ccccc2)CCCC1)Nc1ccc(Cl)cc1`: the GI50 is 1650 nM and the TGI was 3.25 µM.

In the case of `CC(C)CCSC1=CC(=O)c2ccccc2C1=O`, the GI50 was 430 nM and the TGI turned out to be 2.19 µM.

For `Cc1cccc(-c2nn3c(c2-c2ccnc4ccc(C(N)=O)cc24)CCC3)n1`, the GI50 was above 100000 nM and the TGI was above 100 µM.

In the case of `Cc1ccc(S(=O)(=O)Oc2ccc([N+](=O)[O-])cc2[N+](=O)[O-])cc1`, the GI50 was 13200 nM and the TGI came out at 28.4 µM.

Take `CCN(CC)CCCC(C)Nc1cc(-c2ccc(C(F)(F)F)cc2)c(C#N)c2nc3ccccc3n12` (stereo unspecified): the GI50 was 1750 nM and the TGI was determined as 3.35 µM.

Regarding `CCNCCC1(CC)C(=O)NC(=O)NC1=O`, the GI50 was above 100000 nM and the TGI was above 100 µM.

On to `CN1CCC(CNc2ccc3ncc(-c4cccc(OC(F)(F)F)c4)n3n2)CC1`, for which the GI50 was 1240 nM and 1110 nM; the TGI is 2.74 µM and 3.28 µM.

(Values after PubChem BioAssay (NCI).)
